The record followed here is patent US20210000907A1, “MICRONEEDLE-MEDIATED DELIVERY OF TOLEROGENIC IMMUNOTHERAPEUTICS” (University of Maryland, College Park, priority 2017, published 2021).

What all share (type): in vivo
Experiment [1] relates to relapsing-remitting EAE (RR-EAE). As to the kind of experiment: Relapsing-remitting EAE (RR-EAE) driven by PLP in SJL/J mice. Particulars: 0.2 mg/treatment on days 6, 9, 12, by MN or soluble i.p. injection; for RR-EAE mean score: measured at the last treatment day. The procedure: (§1) We confirmed the activity and dose-dependence of traditional GA regimens using daily GA injections (i.p.) at 0.2 or 2.0 mg/day beginning at disease onset in EAE (arrows; N=10/group). As discussed above, EAE is a progressive mouse model of MOG-driven inflammation that results in severe paralysis over several weeks; higher clinical scores indicate more severe disease (FIG. 3, panel A). Next we formulated GA-MNs (with sucrose stabilizer) such that a single MN patch contained 0.2 mg—confirmed by dissolution and fluorimetry—to match the ineffective injected GA dose in FIG. 3 panel A. The actual amount of GA delivered from MNs is likely less than the total GA loading due to accumulation on the backing. Mice were then treated at the ear on days 5, 10, 15, and 20 with GA-MNs or control MNs lacking GA (“Sucrose MN”). […] To analyze this approach in another inflammation model driven by a different myelin peptide—PLP, SJL/J mice were induced with relapsing-remitting EAE (RR-EAE) then treated on days 6, 9, and 12 (N=15/group) using equivalent doses 0.2 mg/treatment (tx) group of GA by MN or soluble i.p. injection.

Experiment [2] relates to Experimental Autoimmune Encephalomyelitis (EAE). As to the kind of experiment: Experimental Autoimmune Encephalomyelitis (EAE), progressive mouse model of MOG-driven inflammation. The procedure: as §1
The subject of experiment [3] is lymphocytes, TREG, CD45+CD4+ T cells. As to the kind of experiment: Flow cytometry of cervical LNs, spleen and spinal cord in RR-EAE mice. The following applies: Day 10 and Day 12, relative to untreated mice with RR-EAE. The procedure:
To analyze this, we analyzed whether GA-MN could increase TREG, and, that because of the decreased clinical scores in FIG. 3, these effects might be evident in cervical LNs. Using analogous regimens to FIG. 3 panel D (RR-EAE), mice were euthanized at Day 10 and Day 12, then cervical LNs and spleen were assessed by flow cytometry. Relative to untreated mice with RR-EAE, GA-MN increased both the number of lymphocytes (FIG. 4 panel A) and the number of TREG (FIG. 4 panel B); these effects were not observed in mice treated with soluble GA. […] At day 12, we assessed the number of lymphocytes and activated CD4^+ T cells, as indicated by staining for CD45^+/CD4^+ cells. Though the group sizes (N=5) were insufficient for statistical significance, we observed a trend that GA-MN decreased the number of lymphocytes the spinal cord (FIG. 5 panel A), as well as the number of infiltrating CD45^+CD4^+ cells (FIG. 5 panels B and C). The data in these Examples indicate GA-MNs deliver GA through the skin of mice at doses that provide efficacy in EAE and RR-EAE.
In general terms: Flow cytometry measures light scatter and fluorescence of single cells or particles in a stream.

Take glatiramer acetate [GA]: in experiment [1] (listed as injectable GA), the RR-EAE disease progression result is recorded as “does not” and the RR-EAE mean score result is “does not”. Further, in experiment [1] (listed as soluble GA), the RR-EAE disease progression result was “no effect” and the RR-EAE mean score entry is reported as “no effect”. Also, the “EAE clinical score, effect of injected GA” value in experiment [2] (daily GA injections i.p. 0.2 mg/day beginning at disease onset) is “ineffective”. Besides, the “EAE clinical score, dose dependence of daily GA dosing” value in experiment [2] (daily GA injections i.p. at 0.2 or 2.0 mg/day beginning at disease onset) is listed as “dose-dependent effects”. Also, in experiment [3], the “Number of TREG in cervical LNs” value was “not observed” and the “Number of lymphocytes in cervical LNs” value is “not observed”.
